Reference: PMC9346598 (The Journal of Poultry Science, 2022)

Key:
chicken GPR120 (cGPR120) [1] = molecular target: T1, chicken GPR120 (cGPR120) (Gallus gallus, UniProt A0A8V0ZCZ6); assay: Fura-2 Ca2+ imaging in transfected HEK293T cells, Hill fit; assay type: cell-based
T1 sequence (A0A8V0ZCZ6 1-362): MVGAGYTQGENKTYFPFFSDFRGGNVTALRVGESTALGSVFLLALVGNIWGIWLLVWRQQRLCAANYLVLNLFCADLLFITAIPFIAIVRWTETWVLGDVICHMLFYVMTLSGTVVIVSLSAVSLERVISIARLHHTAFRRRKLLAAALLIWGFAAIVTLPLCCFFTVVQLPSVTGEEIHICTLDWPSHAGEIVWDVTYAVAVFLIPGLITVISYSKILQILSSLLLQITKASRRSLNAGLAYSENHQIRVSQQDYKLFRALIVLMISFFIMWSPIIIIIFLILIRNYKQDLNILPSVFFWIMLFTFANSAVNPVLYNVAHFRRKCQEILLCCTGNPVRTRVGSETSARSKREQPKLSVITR

chicken GPR120 (cGPR120) [2] = molecular target: T1, chicken GPR120 (cGPR120); assay: as above; assay type: cell-based; conditions: agonist, pH 7.4, about 37 C

CCCCC/C=C\C/C=C\C/C=C\C/C=C\CCCC(=O)O [AA, arachidonic acid]
EC50 (chicken GPR120 (cGPR120) [1]): 1040 µM

CC/C=C\C/C=C\C/C=C\C/C=C\C/C=C\C/C=C\CCC(=O)O [DHA, docosahexaenoic acid]
Fura-2 Ca2+ imaging in transfected HEK293T cells, Hill fit (chicken GPR120 (cGPR120) [2]; 0.1-3 mmol/L in well, stock in ethanol): EPA and DHA activated cGPR120 in a dose-dependent manner

CC/C=C\C/C=C\C/C=C\C/C=C\C/C=C\CCCC(=O)O [EPA, eicosapentaenoic acid]
Fura-2 Ca2+ imaging in transfected HEK293T cells, Hill fit (chicken GPR120 (cGPR120) [2]; 0.1-7 mmol/L in well, stock in ethanol): EPA and DHA activated cGPR120 in a dose-dependent manner

CCCCC/C=C\C/C=C\CCCCCCCC(=O)O [LA, linoleic acid]
Fura-2 Ca2+ imaging in transfected HEK293T cells, Hill fit (chicken GPR120 (cGPR120) [2]; 1-10 mmol/L in well, stock in DMSO): cGPR120 cells were activated in a dose-dependent manner by LA
